# Measured values: US11566229B2, “Expansion and maintenance of adult primary human hepatocytes in culture” (Wisconsin Alumni Research Foundation, priority 2018, dated 2023)
# Key:
# [1] = tested on: mouse adult proliferating hepatocytes; details: U0126 treated mouse adult proliferating hepatocytes
# From the text: Total RNA was qualified with Life Technologies Qubit fluorometer (Q32857) and Agilent Bioanalyzer (G2940CA). Total RNA was used to prepare indexed cDNA libraries with the Ligation Mediated Sequencing (LM-Seq) protocol (Hou, Z et al. 2015). Final indexed cDNA libraries were pooled with forty-four uniquely indexed LM-Seq cDNA libraries per lane and sequenced on an Illumina HiSeq 3000.
# We derived SHPCs from adult mouse liver and treated them with the MAPK inhibitor U0126.
# [2] = tested on: ESC-hepatocyte derived SHPCs; details: SHPC medium, co-cultured with MEFs and U0126; QPCR, FIG. 6
# From the text: We treated the ESC-hepatocyte derived SHPCs in SHPC medium and co-cultured with MEFs and U0126. We FAC sorted the albumin reporter expressing hepatocytes and performed QPCR.
smiles,measurement,setting,value
N#CC(=C(/N)Sc1ccccc1N)/C(C#N)=C(\N)Sc1ccccc1N [U0126],CYP1A2 gene expression (RNA-Seq),[1]; vehicle 1,78
same,RARA gene expression (RNA-Seq),[1]; vehicle 1,5
same,AHR gene expression (RNA-Seq),[1]; vehicle 4,11
same,UGT1A1 gene expression (RNA-Seq),[1]; vehicle 6,54
same,CYP3A16 (human fetal CYP3A4) gene expression (RNA-Seq),[1]; vehicle 15,2
same,RXRA gene expression (RNA-Seq),[1]; vehicle 28,40
same,UGT1A6A gene expression (RNA-Seq),[1]; vehicle 28,189
same,CYP1A1 gene expression (RNA-Seq),[1]; vehicle 36,1447
same,APOH gene expression (RNA-Seq),[1]; vehicle 128,245
same,HNF4A gene expression (RNA-Seq),[1]; vehicle 254,340
same,APOB gene expression (RNA-Seq),[1]; vehicle 332,567
same,CYP3A11 (human adult CYP3A4) gene expression (RNA-Seq),[1]; vehicle 496,563
same,Albumin gene expression (RNA-Seq),[1]; vehicle 6523,11379
same,increase in CYP3A expression,[2],3 fold
same,increase in albumin expression,[2],2 fold
